For series [1], the target named is T1, hERG potassium ion channel (Homo sapiens, UniProt Q12809).
T1 construct: purchased
Nature of the series: Predictor hERG Fluorescence Polarization Assay. Type of series: binding. As to conditions: for IC50: hERG fluorescence polarization. The text has this: In cardiac muscle cells, hERG (human Ether-a-go-go Related Gene) coded potassium channel mediates delayed rectifier potassium currents (IKr). IKr inhibition is the most important mechanism of QT interval prolongation caused by a drug.
Employing the Predictor™ hERG Fluorescence Polarization Assay, the effect of the compounds on a hERG potassium ion channel was detected.

Series [2] is described as follows: Cytotoxicity detection (CellTiter-Glo). It is filed as cell-based. As to conditions: human, HepG2.2.15 cells, highest concentration 150 μM. The protocol:
The test compounds were diluted to 30 mM with DMSO, with 30 mM as the highest concentration, the compounds were subjected to three-fold serial dilution to various concentrations. 0.2 μL of the compounds at various concentrations were added to a 384-well plate, HepG2.2.15 cells having a concentration of 2000 cells per 50 μL were added to each well, and the highest concentration of the test compounds was 150 μM. 1 μL of DMSO was added to corresponding wells for control. The plate was incubated in a 5% CO2 incubator at 37° C. for 4 days; and 50 μL of CellTiter-Glo was added to each well after 4 days. The plate was read for detection, and a half cytotoxic concentration (CC50) was calculated.

Series [3] relates to hepatitis type B virus (HBV). Nature of the series: Inhibition of HBV DNA replication in HepG2.2.15 cells. It is filed as cell-based. Particulars: HepG2.2.15, HBV DNA replication. The protocol:
The inhibitory effect of the compounds of the present invention on hepatitis type B virus (HBV) was tested. Cytotoxicity and effects on nucleic acid (DNA) replication level of the virus (HBV) of the compounds of the present invention were tested at a virus-cell level.
HepG2.2.15 cells in the logarithmic growth phase were plated in a 96-well plate at a cell concentration of 40 cells per μL. The cells were incubated in a 5% CO2 incubator at 37° C. for 3 days; and the culture medium was replaced with a new one ([…]) before adding compounds. The concentration of the stock solution of each Example compound is 200 μM.

Series [4] is described as follows: In vivo pharmacokinetics (PK) in rats. As to conditions: male, SD, rat; for Kp: liver/plasma, 2 mg/kg. Here is the method: The test compounds were administrated to male SD rats by intravenous (iv) and by gavage (po), respectively, the doses of the iv and po administration were respectively 1 mg/kg and 2 mg/kg, the solvent system for iv administration was 5% DMSO:5% solutol:90% physiological saline, and the solvent system for po administration was 0.5% MC. Blood was collected at multiple time points after iv administration and po administration for the PK study. Plasma samples and liver tissue samples were subjected to protein precipitation, followed by LC-MS/MS analysis. The mass spectrometer was API 5500, and the liquid chromatograph is a Waters ACQUITY I CLASS system; the chromatographic column was an Agela ASB C18 column (2.1 mm×50 mm, 1.9 μm); mobile phase A was water+0.1% formic acid, and phase B was acetonitrile; the flow rate was 0.4 mL/min, and the column temperature was 40° C. The ion source was an ESI source in a positive ion mode, and the scanning manner is multiple reaction monitoring (MRM).

Where two headings read alike, the source gives them in different places.

T1 sequence (Q12809 whole entry): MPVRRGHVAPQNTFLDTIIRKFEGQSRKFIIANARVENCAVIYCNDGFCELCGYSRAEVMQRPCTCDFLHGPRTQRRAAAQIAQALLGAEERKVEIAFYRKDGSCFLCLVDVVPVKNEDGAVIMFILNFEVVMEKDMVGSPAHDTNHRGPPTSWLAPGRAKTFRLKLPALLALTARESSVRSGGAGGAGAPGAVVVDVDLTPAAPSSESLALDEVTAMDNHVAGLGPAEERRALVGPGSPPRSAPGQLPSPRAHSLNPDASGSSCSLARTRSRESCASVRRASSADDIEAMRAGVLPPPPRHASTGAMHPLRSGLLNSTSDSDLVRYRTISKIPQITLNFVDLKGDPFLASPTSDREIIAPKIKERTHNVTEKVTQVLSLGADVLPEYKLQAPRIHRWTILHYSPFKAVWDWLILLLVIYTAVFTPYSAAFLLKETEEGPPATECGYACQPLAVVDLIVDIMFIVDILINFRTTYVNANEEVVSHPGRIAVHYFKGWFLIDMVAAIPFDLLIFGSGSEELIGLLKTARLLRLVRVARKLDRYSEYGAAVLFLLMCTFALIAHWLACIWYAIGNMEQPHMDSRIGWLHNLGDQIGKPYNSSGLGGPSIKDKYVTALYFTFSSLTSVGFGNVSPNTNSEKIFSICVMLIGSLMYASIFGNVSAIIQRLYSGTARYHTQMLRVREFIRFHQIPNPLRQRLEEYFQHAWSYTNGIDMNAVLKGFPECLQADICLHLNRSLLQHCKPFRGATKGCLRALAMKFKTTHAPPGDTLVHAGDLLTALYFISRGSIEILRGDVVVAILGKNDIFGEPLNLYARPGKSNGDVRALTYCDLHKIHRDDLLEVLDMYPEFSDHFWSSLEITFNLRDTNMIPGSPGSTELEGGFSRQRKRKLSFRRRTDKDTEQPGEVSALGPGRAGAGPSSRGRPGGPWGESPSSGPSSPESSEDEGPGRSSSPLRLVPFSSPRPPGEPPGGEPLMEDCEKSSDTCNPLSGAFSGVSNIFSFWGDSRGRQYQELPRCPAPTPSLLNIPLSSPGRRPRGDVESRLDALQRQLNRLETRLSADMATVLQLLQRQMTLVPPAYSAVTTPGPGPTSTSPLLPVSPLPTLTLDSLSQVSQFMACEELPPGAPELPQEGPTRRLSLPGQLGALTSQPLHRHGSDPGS

As for `CCOC(=O)C1=C(CN2CCC(O)C(F)(F)C2)NC(c2nccs2)=N[C@H]1c1ccc(F)cc1Cl` (single isomer, unassigned) [Isomer B of Example 4], the IC50 in series [1] is greater than 10000 nM. In addition, the midpoint of cytotoxicity in series [2], the CC50 at 4 days, lay at 51300 nM. In addition, in series [3], a half-maximal effect (EC50) was put at 34.7 nM.
In turn, `CCOC(=O)C1=C(CN2CC(F)(F)C2)NC(c2nccs2)=N[C@H]1c1ccc(F)cc1Cl` [10-7 of Example 6, (R)-ethyl 4-(2-chloro-4-fluorophenyl)-6-((3,3-difluoroazetidin-1-yl)methyl)-2-(thiazol-2-yl)-1,4-dihydropyrimidine-5-carboxylate] came in with a CC50 at 4 days in series [2] of 130000 nM. For the same molecule, in series [3], a half-maximal response (EC50) required 102 nM.
On to `CCOC(=O)C1=C(CN2C[C@@H](O)[C@H](F)C2)NC(c2nccs2)=N[C@H]1c1ccc(F)cc1Cl` [10-34 of Example 9, (R)-ethyl 4-(2-chloro-4-fluorophenyl)-6-(((3R,4R)-3-fluoro-4-hydroxypyrrolidin-1-yl)methyl)-2-(thiazol-2-yl)-1,4-dihydropyrimidine-5-carboxylate], for which the CC50 at 4 days in series [2] was found to be 79600 nM. Also, the EC50 in series [3] was 13.2 nM.
Consider `CCOC(=O)C1=C(CN2C[C@@H](F)[C@H](OCC(=O)O)C2)NC(c2nccs2)=N[C@H]1c1ccc(F)cc1Cl` [10-36 of Example 10, 2-(((3R,4R)-1-(((R)-6-(2-chloro-4-fluorophenyl)-5-(ethoxycarbonyl)-2-(thiazol-2-yl)-3,6-dihydropyrimidin-4-yl)methyl)-4-fluoropyrrolidin-3-yl)oxy)acetic acid], for which the IC50 in series [1] is greater than 10000 nM. The molecule further returned a CC50 at 4 days in series [2] greater than 150000 nM. In addition, the midpoint of the response in series [3], the EC50, lay at 98.1 nM.
Turning to `CCOC(=O)C1=C(CN2CC(O)C(F)(F)C2)NC(c2nccs2)=N[C@H]1c1ccc(F)cc1Cl` (stereo partly drawn) [10-40 of Example 11, (4R)-ethyl 4-(2-chloro-4-fluorophenyl)-6-((3,3-difluoro-4-hydroxypyrrolidin-1-yl)methyl)-2-(thiazol-2-yl)-1,4-dihydropyrimidine-5-carboxylate], in series [1], the IC50 is greater than 10000 nM. The molecule also yielded a CC50 at 4 days in series [2] of 73500 nM. This molecule also came in with an EC50 in series [3] of 6.2 nM.
Turning to `CCOC(=O)C1=C(CN2CC(OCC(=O)O)C(F)(F)C2)NC(c2nccs2)=N[C@H]1c1ccc(F)cc1Cl` (stereo partly drawn) [10-42 of Example 12, 2-((1-(((R)-6-(2-chloro-4-fluorophenyl)-5-(ethoxycarbonyl)-2-(thiazol-2-yl)-3,6-dihydropyrimidin-4-yl)methyl)-4,4-difluoropyrrolidin-3-yl)oxy)acetic acid], the IC50 in series [1] was greater than 10000 nM. Also, the CC50 at 4 days in series [2] was greater than 150000 nM. This molecule yielded an EC50 in series [3] of 164 nM.
For the molecule `CCOC(=O)C1=C(CN2CCC(O)C(F)(F)C2)NC(c2nccs2)=NC1c1ccc(F)cc1Br` (centres unmarked) [10-93 of Example 2, ethyl 4-(2-bromo-4-fluorophenyl)-6-((3,3-difluoro-4-hydroxypiperidin-1-yl)methyl)-2-(thiazol-2-yl)-1,4-dihydropyrimidine-5-carboxylate], the IC50 in series [1] is greater than 10000 nM.
In series [2], `CCOC(=O)C1=C(CN2CC(COCC(=O)O)CC(F)(F)C2)NC(c2nccs2)=N[C@H]1c1ccc(F)cc1Cl` (stereo partly drawn) [10-136 of Example 16, 2-((1-(((R)-6-(2-chloro-4-fluorophenyl)-5-(ethoxycarbonyl)-2-(thiazol-2-yl)-3,6-dihydropyrimidin-4-yl)methyl)-5,5-difluoropiperidin-3-yl)methoxy)acetic Acid] returned a CC50 at 4 days of 122000 nM. In addition, the response in series [3] was half-maximal at 110 nM (EC50).
Molecule `CCOC(=O)C1=C(CN2CCOCC2COCC(=O)O)NC(c2nccs2)=N[C@H]1c1ccc(F)cc1Cl` (stereo partly drawn) [10-162 of Example 15, 2-((4-(((R)-6-(2-chloro-4-fluorophenyl)-5-(ethoxycarbonyl)-2-(thiazol-2-yl)-3,6-dihydropyrimidin-4-yl)methyl)morpholin-3-yl)methoxy)acetic Acid] came in with a CC50 at 4 days in series [2] greater than 150000 nM. The EC50 in series [3] amounted to 213 nM.
The like results for `CCOC(=O)C1=C(CN2CCOC(/C=C/C(=O)O)C2)NC(c2nccs2)=N[C@H]1c1ccc(F)cc1Cl` (stereo partly drawn) [10-180 of Example 14, (E)-3-(4-(((R)-6-(2-chloro-4-fluorophenyl)-5-(ethoxycarbonyl)-2-(thiazol-2-yl)-3,6-dihydropyrimidin-4-yl)methyl)morpholin-2-yl)acrylic Acid] were, in that order, greater than 150000 nM and 23.5 nM.
With `CCOC(=O)C1=C(CN2CCOCC2/C=C/C(=O)O)NC(c2nccs2)=N[C@H]1c1ccc(F)cc1Cl` (stereo partly drawn) [10-182 of Example 13, (E)-3-(4-(((R)-6-(2-chloro-4-fluorophenyl)-5-(ethoxycarbonyl)-2-(thiazol-2-yl)-3,6-dihydropyrimidin-4-yl)methyl)morpholin-3-yl)acrylic Acid], the CC50 at 4 days in series [2] was greater than 150000 nM. In series [3], this molecule gave an EC50 of 61.8 nM.
For `COC(=O)C1=C(CN2CCO[C@H](/C=C/C(=O)O)C2)NC(c2nccs2)=N[C@H]1c1ccc(F)cc1Br` [10-229 of Example 28, (E)-3-((R)-4-(((R)-6-(2-bromo-4-fluorophenyl)-5-(methoxycarbonyl)-2-(thiazol-2-yl)-3,6-dihydropyrimidin-4-yl)methyl)morpholin-2-yl)acrylic Acid], in that order: greater than 150000 nM and 8.3 nM.
The like results for `COC(=O)C1=C(CN2CCO[C@H](/C=C/C(=O)O)C2)NC(c2nccs2)=N[C@H]1c1ccc(F)c(F)c1Cl` [10-237 of Example 30, (E)-3-((R)-4-(((R)-6-(2-chloro-3,4-difluorophenyl)-5-(methoxycarbonyl)-2-(thiazol-2-yl)-3,6-dihydropyrimidin-4-yl)methyl)morpholin-2-yl)acrylic Acid] were, in that order, greater than 150000 nM and 10.9 nM.
As for `COC(=O)C1=C(CN2CCO[C@H](/C=C/C(=O)O)C2)NC(c2nccs2)=N[C@H]1c1ccc(F)c(F)c1Br` [10-238 of Example 31, (E)-3-((R)-4-(((R)-6-(2-bromo-3,4-difluorophenyl)-5-(methoxycarbonyl)-2-(thiazol-2-yl)-3,6-dihydropyrimidin-4-yl)methyl)morpholin-2-yl)acrylic Acid], the CC50 at 4 days in series [2] was greater than 150000 nM. The molecule further came in with an EC50 in series [3] of 10.2 nM.
In turn, `COC(=O)C1=C(CN2CCO[C@H](/C=C/C(=O)O)C2)NC(c2nccs2)=N[C@H]1c1ccc(F)c(F)c1C` [10-239 of Example 32, (E)-3-((R)-4-(((S)-6-(3,4-difluoro-2-methylphenyl)-5-(methoxycarbonyl)-2-(thiazol-2-yl)-3,6-dihydropyrimidin-4-yl)methyl)morpholin-2-yl)acrylic Acid] displayed a CC50 at 4 days in series [2] greater than 150000 nM. Besides, the EC50 in series [3] worked out at 28.9 nM.
For `COC(=O)C1=C(CN2CCO[C@H](/C=C/C(=O)O)C2)NC(c2nccs2)=N[C@H]1c1cccc(F)c1Cl` [10-240 of Example 33, (E)-3-((R)-4-(((R)-6-(2-chloro-3-fluorophenyl)-5-(methoxycarbonyl)-2-(thiazol-2-yl)-3,6-dihydropyrimidin-4-yl)methyl)morpholin-2-yl)acrylic Acid], in series [2], the CC50 at 4 days is greater than 150000 nM. Moreover, in series [3], the EC50 came out at 21.1 nM.
With `CCOC(=O)C1=C(CN2CCO[C@H](CCC(=O)O)C2)NC(c2nccs2)=N[C@H]1c1ccc(F)cc1Cl` [Control compound 2, reference compound], the “inhibitory effect on the hERG potassium ion channel (in words)” value in series [1] (criterion: IC50 greater than 10 μM = no inhibitory effect) is “significant inhibitory effect”. Also, the IC50 in series [1] is 1000 to 10000 nM. Besides, the bioavailability in series [4] (plasma, po, by gavage, 2.00 mg/kg, read-out: bioavailability (F)) worked out at 20.9%. For the same molecule, the Kp was roughly 1.5 in series [4] (po, po, 2.00 mg/kg, AUCINF liver/plasma, read-out: amount of exposure in liver relative to that in plasma) and roughly 0.5 in series [4] (po, po, 2.00 mg/kg, Cmax liver/plasma, read-out: blood-drug concentration in liver relative to that in plasma). Moreover, the AUC(0-inf) was found to be 2150 ng·h/mL in series [4] (iv, 1.00 mg/kg, plasma); 1490 ng·h/mL in series [4] (po, 2.00 mg/kg, liver); 897 ng·h/mL in series [4] (po, 2.00 mg/kg, plasma). The Cmax in series [4] (iv, 1.00 mg/kg, plasma) worked out at 2470 ng/mL; in series [4] (po, 2.00 mg/kg, liver), 547 ng/mL; in series [4] (po, 2.00 mg/kg, plasma), 1250 ng/mL. For the same molecule, in series [3], the EC50 worked out at 89 nM.

Values taken from patent US11166954B2, “Dihydropyrimidine compound and preparation method and use thereof” (SICHUAN KELUN-BIOTECH BIOPHARMACEUTICAL CO., LTD., priority 2016, dated 2021).
